According to patent US20250169495A1, “COMPOSITIONS AND METHODS FOR CONTROLLING DROSOPHILA FLIES” (Rutgers, The State University of New Jersey, priority 2023, published 2025):

system: Drosophila suzukii adults; experiment: Multiple choice bioassay #1: anthracnose-induced volatiles, gated traps with blueberries; type: in vivo; details: 50 μL neat volatile added to blueberry fruit in gated trap; 15 traps per arena; 24 h; n=4
Experimental: These bioassays were done in arenas that consisted of a dome cage (60 cm width×60 cm length x 60 cm height; BugDorm-2120 Insect tent; shop.bugdorm.com) (FIG. 1A). Within each arena, 15 gated traps were positioned randomly in a circle (40 cm diameter) at equal distance with each trap 8.4 cm apart along the circumference (FIG. 1A). Each gated trap consisted of 50 mL polystyrene tubes (Fisher Scientific, Nazareth, PA, USA) covered with aluminum foil and sealed with Parafilm®, with a 4 mm-diameter hole in the center of the Parafilm to provide an entrance to flies. All traps had equal quantities (ca. 5 g) of store-bought organic blueberry fruit (n=5); fruit were sterilized with bleach prior to the study (10% bleach for 2 min, rinsed three times in distilled water). One of the 15 traps served as a control (with blueberry fruit only) and the remaining 14 traps had one of the anthracnose volatile compounds added to the blueberry fruit. The 14 compounds tested were: 3-hydroxy-2-butanone, styrene, (E)-2-hexen-1-ol, ethyl 3-hydroxy-3-methylbutanoate, 2-methyl-1-butanol, ethyl propanoate, 2-methyl-1-propanol, diethyl carbonate, 2-methylpropanal, 3-methyl-1-butanol, ethyl 2-methylpropanoate, ethyl butanoate, ethyl (E)-but-2-enoate, and 3-methyl-3 buten-1-ol (see Results). Each volatile (50 μL, neat) was released from a 1 mL polyethylene vial (Globe Scientific Inc., Paramus, NJ, USA) with a piece of cotton placed inside each trap (control traps had vials with cotton but without the volatile). A vial with a cotton ball soaked with deionized water was placed in the middle of the arena to provide flies with water during the experiment. Roughly 300 D. suzukii adults (1:1 male: female ratio) were released inside each arena and the number and sex of flies inside treatment and control traps was recorded after 24 h. The experiment started at 1:00 p.m., was replicated 4 times, and was done in a laboratory under 22+2° C., 55+5% RH, 16:8 (L:D) h.
Data from multiple choice assays on the percent of male and female D. suzukii adults responding to each volatile were compared using ANOVA (Minitab version 17; Minitab Inc., State College, PA, USA). The ANOVA model included treatment, sex, and their interaction as fixed factors and block (replicate) as a random factor. A multi-comparison Tukey test (Minitab) was used to determine differences among treatments. Percent data were arcsine square-root transformed prior to ANOVA. Pairwise choice assays were analyzed using G-tests with William's correction. Non-responders were excluded from the statistical analyses.

Compound	number of flies captured relative to the control
CCOC(=O)C(C)C [ethyl 2-methylpropanoate]	reduced the number of flies captured relative to the control
C=Cc1ccccc1 [styrene]	trapped a higher number of flies than the control
CC(C)CO [2-methyl-1-propanol]	reduced the number of flies captured relative to the control
CCOC(=O)OCC [diethyl carbonate]	reduced the number of flies captured relative to the control
CCOC(=O)CC [ethyl propanoate]	reduced the number of flies captured relative to the control
CC(C)C=O [2-methylpropanal]	reduced the number of flies captured relative to the control
CCOC(=O)CC(C)(C)O [ethyl 3-hydroxy-3-methylbutanoate, Ethyl 3-hydroxy-3-methylbutanoate]	captured a similar number of flies as the control
CC(C)CCO [3-methyl-1-butanol]	reduced the number of flies captured relative to the control
CCC(C)CO (stereo not shown) [2-methyl-1-butanol]	captured a similar number of flies as the control
CC(=O)C(C)O (stereo not shown) [3-hyrdroxy-2-butanone, 3-Hydroxy-2-butanone]	trapped a higher number of flies than the control
CCC/C=C/CO [(E)-2-hexen-1-ol]	captured a similar number of flies as the control
C=C(C)CCO [3-methyl-3-buten-1-ol]	reduced the number of flies captured relative to the control

system: Drosophila suzukii adults; experiment: Multiple choice bioassay #2: known and putative repellents; type: in vivo; details: 50 μL neat; six traps per arena; 24 h; n=6
Experimental: Within each arena, six gated traps were positioned randomly in a circle (40 cm diameter) at equal distance with each trap 20 cm apart along the circumference. Each gated trap contained ˜5 g of store-bought organic blueberry fruit (n=5), as described elsewhere herein. One of the six traps served as a control (with blueberry fruit only) and the remaining five traps had one of the repellents added to the blueberry fruit. Each volatile (50 μL, neat) was released from a 1 mL polyethylene vial with a piece of cotton placed inside each trap (control traps had vials with cotton but without the volatile). A vial with a cotton ball soaked with deionized water was placed in the middle of the arena. Roughly 150 D. suzukii adults (1:1 male: female ratio) were released inside each arena and the number and sex of flies inside treatment and control traps was recorded after 24 h. The experiment started at 1:00 p.m., was replicated 6 times, and was done in a laboratory under 22±2° C., 55±5% RH, 16:8 (L:D) h. Data from multiple choice assays on the percent of male and female D. suzukii adults responding to each volatile were compared using ANOVA (Minitab version 17; Minitab Inc., State College, PA, USA). The ANOVA model included treatment, sex, and their interaction as fixed factors and block (replicate) as a random factor. A multi-comparison Tukey test (Minitab) was used to determine differences among treatments. Percent data were arcsine square-root transformed prior to ANOVA. Pairwise choice assays were analyzed using G-tests with William's correction. Non-responders were excluded from the statistical analyses.

Compound	strength of repellency among the five repellents (rank)
CC1CCCC2(C)CCCCC12O (stereo not shown) [geosmin]	the least repellent
